Test results taken from ChEMBL document CHEMBL4507291 (2021).

Key:
[1] = target: Dual specificity protein kinase CLK4 (Homo sapiens) (UniProt Q9HAZ1)
[2] = target: T1, Ephrin type-A receptor 1 (Homo sapiens) (UniProt P21709)
T1 sequence (whole entry): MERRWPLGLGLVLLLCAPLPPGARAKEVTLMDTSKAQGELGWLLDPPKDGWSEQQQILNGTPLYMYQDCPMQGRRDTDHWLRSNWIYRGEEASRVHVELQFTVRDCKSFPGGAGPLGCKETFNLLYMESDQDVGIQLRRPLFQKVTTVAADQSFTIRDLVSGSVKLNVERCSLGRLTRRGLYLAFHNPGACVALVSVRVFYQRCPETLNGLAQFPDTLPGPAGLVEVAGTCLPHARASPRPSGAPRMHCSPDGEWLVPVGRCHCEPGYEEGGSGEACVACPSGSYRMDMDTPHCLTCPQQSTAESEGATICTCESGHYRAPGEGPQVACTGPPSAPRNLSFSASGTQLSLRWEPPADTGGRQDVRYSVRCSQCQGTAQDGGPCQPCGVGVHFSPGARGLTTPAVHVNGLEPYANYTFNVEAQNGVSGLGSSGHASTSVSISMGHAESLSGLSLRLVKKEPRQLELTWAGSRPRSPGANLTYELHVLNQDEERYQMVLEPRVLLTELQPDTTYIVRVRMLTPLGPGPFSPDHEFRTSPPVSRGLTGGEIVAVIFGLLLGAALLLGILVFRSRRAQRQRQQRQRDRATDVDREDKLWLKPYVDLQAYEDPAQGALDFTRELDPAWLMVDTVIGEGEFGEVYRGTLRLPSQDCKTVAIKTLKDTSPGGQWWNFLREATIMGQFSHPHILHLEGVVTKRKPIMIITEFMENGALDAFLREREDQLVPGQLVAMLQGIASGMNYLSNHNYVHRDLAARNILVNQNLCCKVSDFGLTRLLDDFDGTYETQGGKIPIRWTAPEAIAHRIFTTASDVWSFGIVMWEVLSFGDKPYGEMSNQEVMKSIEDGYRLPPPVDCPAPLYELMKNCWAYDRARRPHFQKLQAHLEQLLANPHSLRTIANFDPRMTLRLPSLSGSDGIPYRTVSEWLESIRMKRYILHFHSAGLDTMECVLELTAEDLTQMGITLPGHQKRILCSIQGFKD

[3] = target: T2, G protein-coupled receptor kinase 3 (Homo sapiens) (UniProt P35626)
T2 sequence (whole entry): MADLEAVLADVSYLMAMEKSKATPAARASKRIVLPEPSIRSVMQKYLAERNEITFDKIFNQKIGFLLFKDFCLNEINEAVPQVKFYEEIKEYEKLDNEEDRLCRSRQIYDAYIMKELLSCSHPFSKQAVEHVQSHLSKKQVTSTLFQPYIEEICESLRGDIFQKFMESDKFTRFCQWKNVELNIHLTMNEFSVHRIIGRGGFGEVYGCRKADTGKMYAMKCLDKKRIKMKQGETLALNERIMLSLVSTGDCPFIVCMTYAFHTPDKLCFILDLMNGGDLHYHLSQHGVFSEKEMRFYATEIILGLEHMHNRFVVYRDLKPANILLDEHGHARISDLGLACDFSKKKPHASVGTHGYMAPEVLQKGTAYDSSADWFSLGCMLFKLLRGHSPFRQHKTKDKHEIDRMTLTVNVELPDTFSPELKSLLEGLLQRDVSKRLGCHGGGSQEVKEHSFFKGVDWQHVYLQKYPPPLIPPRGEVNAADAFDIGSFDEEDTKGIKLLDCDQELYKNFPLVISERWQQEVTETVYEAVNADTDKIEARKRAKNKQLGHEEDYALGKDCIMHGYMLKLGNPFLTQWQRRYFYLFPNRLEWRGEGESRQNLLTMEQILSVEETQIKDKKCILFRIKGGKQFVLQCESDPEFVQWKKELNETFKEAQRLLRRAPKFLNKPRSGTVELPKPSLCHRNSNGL

[4] = target: Phosphatidylinositol 5-phosphate 4-kinase type-2 gamma (Homo sapiens) (UniProt Q8TBX8)
Phosphatidylinositol 5-phosphate 4-kinase type-2 gamma (Homo sapiens), sequence (Q8TBX8 whole entry): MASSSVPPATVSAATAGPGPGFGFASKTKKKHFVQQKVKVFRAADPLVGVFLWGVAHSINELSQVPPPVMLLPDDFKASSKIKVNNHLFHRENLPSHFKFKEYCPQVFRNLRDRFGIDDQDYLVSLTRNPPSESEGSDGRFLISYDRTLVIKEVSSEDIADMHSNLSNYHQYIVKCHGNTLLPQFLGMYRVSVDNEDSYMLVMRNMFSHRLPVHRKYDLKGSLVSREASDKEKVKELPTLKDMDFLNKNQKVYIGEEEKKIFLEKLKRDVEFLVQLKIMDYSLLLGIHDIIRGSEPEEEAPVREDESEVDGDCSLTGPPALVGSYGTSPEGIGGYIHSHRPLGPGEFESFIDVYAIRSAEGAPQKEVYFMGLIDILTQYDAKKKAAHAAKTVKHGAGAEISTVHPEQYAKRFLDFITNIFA

[5] = target: T3, Dual specificity protein kinase TTK (Homo sapiens) (UniProt P33981)
T3 sequence (whole entry): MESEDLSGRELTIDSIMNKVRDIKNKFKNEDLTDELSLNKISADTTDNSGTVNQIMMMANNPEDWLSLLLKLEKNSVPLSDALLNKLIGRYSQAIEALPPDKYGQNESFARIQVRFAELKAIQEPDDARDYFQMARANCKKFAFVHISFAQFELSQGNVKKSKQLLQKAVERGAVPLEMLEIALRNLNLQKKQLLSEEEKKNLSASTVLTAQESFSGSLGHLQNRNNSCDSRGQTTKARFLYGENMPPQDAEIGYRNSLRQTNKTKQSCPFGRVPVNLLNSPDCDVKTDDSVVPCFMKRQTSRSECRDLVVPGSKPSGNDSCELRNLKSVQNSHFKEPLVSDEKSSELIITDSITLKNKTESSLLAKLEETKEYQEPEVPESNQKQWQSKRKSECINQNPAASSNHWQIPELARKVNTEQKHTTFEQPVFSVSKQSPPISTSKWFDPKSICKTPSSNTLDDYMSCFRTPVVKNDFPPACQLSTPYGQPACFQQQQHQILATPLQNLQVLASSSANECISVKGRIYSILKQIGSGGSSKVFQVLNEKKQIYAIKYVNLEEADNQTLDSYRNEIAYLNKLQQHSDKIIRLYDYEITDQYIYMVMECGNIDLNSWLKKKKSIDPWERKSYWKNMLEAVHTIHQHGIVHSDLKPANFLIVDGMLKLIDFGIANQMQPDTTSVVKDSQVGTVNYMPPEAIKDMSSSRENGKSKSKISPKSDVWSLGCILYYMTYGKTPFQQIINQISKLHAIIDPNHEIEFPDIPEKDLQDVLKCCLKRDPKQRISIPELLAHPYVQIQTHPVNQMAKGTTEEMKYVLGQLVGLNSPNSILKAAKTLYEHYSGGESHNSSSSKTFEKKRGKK

[6] = target: Mitogen-activated protein kinase kinase kinase 19 (Homo sapiens) (UniProt Q56UN5)
Mitogen-activated protein kinase kinase kinase 19 (Homo sapiens), sequence (Q56UN5 whole entry): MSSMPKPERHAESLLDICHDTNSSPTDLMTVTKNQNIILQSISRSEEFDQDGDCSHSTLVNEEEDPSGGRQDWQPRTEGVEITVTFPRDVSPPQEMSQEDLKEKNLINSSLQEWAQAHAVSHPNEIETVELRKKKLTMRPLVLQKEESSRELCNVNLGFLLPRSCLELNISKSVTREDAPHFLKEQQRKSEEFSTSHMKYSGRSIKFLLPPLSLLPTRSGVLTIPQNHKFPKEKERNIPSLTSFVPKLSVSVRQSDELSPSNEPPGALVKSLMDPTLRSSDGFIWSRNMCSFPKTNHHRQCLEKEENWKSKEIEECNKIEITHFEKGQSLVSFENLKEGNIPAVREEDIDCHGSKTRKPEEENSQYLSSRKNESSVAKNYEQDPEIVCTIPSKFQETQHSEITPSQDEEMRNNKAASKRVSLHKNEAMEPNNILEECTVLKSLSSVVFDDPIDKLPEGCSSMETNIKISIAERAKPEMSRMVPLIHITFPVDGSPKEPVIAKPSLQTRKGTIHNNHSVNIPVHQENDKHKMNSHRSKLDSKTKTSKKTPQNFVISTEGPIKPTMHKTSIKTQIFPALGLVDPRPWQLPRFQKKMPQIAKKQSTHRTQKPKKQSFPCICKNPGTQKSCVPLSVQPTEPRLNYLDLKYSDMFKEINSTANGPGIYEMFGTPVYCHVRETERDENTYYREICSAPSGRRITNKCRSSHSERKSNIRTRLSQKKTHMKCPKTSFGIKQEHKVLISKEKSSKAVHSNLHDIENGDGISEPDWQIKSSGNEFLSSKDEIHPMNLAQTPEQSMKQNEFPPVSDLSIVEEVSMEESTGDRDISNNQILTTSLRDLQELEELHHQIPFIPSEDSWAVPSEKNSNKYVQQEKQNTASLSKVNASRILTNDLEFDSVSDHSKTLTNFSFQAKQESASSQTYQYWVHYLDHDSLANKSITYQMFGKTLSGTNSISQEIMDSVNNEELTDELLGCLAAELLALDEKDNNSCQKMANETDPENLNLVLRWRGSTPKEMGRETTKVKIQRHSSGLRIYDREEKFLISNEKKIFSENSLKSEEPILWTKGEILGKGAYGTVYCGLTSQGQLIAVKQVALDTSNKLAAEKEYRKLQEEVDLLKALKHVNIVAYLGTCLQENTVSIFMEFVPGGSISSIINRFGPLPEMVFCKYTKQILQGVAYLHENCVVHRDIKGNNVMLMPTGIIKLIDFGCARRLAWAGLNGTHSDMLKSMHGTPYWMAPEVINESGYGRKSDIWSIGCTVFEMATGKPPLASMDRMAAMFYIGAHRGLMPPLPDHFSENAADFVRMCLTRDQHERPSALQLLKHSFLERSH

[7] = Compound concentration 1000.0 nM
[8] = Compound concentration 100.0 nM

Measured: residual activity

Dual specificity protein kinase CLK4 (Homo sapiens), sequence (Q9HAZ1 whole entry, looked up): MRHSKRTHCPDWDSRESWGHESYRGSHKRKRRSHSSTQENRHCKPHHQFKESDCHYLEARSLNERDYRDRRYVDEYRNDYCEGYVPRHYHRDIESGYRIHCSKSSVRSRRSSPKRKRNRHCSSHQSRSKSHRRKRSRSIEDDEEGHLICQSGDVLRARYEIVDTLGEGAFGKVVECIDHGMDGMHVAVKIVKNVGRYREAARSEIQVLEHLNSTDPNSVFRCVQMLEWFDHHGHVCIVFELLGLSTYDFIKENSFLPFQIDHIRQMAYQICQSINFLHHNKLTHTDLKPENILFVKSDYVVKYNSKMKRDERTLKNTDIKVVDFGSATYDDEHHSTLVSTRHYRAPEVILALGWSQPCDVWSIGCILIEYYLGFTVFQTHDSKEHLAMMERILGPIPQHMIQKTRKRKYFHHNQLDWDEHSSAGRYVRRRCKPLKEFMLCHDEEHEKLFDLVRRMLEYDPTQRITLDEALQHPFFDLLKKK

C[C@@H]1CN(c2cc(-c3nn(C)c4ccc(OC5(C)CC5)cc34)ncn2)C[C@H](C)O1 [MLi-2-NC]
inactive: [1]; [7] 100% | [2]; [7] 100% | [3]; [7] 69% | [4]; [7] 98% | [5]; [7] 100% | [6]; [7] 68%

C[C@@H]1CN(c2cc(-c3n[nH]c4ccc(OC5(C)CC5)cc34)ncn2)C[C@H](C)O1 [MLi-2]
inactive: [1]; [8] 87% | [2]; [8] 76% | [3]; [8] 91% | [4]; [8] 90% | [5]; [8] 74% | [6]; [8] 84%
